This passage reports Classification results from patent US20050282743A1, “Molecular interactions in cells” (Arbor Vita Corporation, priority 2001, published 2005).

Ends that are not written are not given here. Peptide text beside a SMILES is read from it. * marks the point of attachment. Biotin = O=C1N[C@H]2[C@H](CS[C@H]2CCCCC(=O)*)N1

Assay [1] addresses T1, PDZ protein (GST-PDZ fusion) (Homo sapiens, UniProt Q9NY99).
T1 construct: made in house; host or cells: E. coli (DH5alpha, BL21 or JM109)
T1 sequence (Q9NY99 1-539): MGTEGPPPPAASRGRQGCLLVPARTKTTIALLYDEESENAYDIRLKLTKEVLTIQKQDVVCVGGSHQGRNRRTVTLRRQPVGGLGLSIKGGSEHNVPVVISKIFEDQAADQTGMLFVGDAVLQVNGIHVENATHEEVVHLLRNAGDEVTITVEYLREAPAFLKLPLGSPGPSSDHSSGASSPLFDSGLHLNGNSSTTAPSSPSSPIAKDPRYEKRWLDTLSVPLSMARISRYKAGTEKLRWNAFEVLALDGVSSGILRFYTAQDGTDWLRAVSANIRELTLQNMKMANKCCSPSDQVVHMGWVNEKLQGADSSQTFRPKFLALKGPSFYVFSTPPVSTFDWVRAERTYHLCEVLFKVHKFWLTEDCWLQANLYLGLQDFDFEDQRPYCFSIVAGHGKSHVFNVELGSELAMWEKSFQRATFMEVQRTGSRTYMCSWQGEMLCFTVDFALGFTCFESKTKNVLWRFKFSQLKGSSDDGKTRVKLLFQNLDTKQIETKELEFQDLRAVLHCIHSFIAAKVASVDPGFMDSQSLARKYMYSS
Kind of assay: G' assay (10 uM PL peptide), results of TABLE 7 and TABLE 12. It counts as binding. Conditions: PDZ Syntrophin gamma-2, PDZ Domain 1. The method in brief:
(§1)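 Binding classes derive from A450 nm of bound biotin-tagged PL peptide. A score of 5 needs A450 above 4 in more than two repeats.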

For assay [2], the target named is T2, PDZ protein (GST-PDZ fusion) (Homo sapiens, UniProt Q14CM0).
T2 construct: made in house; host or cells: E. coli (DH5alpha, BL21 or JM109)
T2 sequence (Q14CM0 1-1322): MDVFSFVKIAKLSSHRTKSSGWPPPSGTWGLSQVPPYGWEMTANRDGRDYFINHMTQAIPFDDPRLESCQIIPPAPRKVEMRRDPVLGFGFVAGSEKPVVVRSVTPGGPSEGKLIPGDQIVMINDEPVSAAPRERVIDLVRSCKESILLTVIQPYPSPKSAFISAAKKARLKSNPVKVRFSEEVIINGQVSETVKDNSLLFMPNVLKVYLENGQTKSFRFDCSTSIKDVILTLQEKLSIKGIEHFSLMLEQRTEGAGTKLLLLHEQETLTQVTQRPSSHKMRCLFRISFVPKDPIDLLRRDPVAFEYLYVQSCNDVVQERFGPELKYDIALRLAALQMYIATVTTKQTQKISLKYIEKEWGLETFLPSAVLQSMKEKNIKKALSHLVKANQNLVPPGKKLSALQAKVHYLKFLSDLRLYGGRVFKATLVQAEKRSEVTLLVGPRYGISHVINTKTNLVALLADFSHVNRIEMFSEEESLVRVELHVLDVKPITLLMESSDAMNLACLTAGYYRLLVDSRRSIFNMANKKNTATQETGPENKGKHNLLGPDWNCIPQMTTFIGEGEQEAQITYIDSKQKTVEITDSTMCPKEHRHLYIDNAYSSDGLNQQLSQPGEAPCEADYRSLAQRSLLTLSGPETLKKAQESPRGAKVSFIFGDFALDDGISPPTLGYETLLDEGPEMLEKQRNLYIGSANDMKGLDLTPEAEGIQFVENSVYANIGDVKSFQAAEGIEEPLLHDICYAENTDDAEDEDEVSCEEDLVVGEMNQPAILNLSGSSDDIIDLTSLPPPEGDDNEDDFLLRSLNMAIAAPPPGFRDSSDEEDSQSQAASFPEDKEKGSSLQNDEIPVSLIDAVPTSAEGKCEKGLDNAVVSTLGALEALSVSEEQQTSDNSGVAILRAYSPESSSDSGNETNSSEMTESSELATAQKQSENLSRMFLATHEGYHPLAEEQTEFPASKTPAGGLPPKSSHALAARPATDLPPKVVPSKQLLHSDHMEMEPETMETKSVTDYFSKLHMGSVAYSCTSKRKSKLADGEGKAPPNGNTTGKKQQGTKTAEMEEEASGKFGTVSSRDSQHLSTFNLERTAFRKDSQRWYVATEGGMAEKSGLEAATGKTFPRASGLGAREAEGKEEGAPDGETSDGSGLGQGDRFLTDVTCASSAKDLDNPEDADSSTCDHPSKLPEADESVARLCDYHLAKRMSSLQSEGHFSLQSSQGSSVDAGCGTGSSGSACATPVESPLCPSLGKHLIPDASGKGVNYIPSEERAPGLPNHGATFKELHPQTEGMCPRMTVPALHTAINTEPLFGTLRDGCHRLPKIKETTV
The assay is described as above. Particulars: PDZ KIAA0316, PDZ Domain 1. It counts as binding. The method in brief: as §1

For TQGFPGPATWRRISSLESEV, the Classification in assay [1] is 2 (A450 nm 1-2).

Turning to `CC(C)C[C@H](NC(=O)[C@H](C)NC(=O)[C@@H](NC(=O)[C@H](CCC(=O)O)NC(=O)[C@H](CCCNC(=N)N)NC(=O)[C@H](CCCNC(=N)N)NC(=O)CNC(=O)[C@H](CCC(N)=O)NC(=O)[C@H](CC(C)C)NC(=O)[C@H](CCCNC(=N)N)NC(=O)CNC(=O)CNC(=O)[C@H](CCCNC(=N)N)NC(=O)[C@H](C)NC(=O)[C@H](CO)NC(=O)[C@H](CCCNC(=N)N)NC(=O)CNC(=O)CNC(=O)[C@H](C)NC(=O)[C@H](C)NC(=O)CCCC[C@@H]1SC[C@@H]2NC(=O)N[C@@H]21)[C@@H](C)O)C(=O)O` [HPV E6 33 (modified)] (Biotin-AAGGRSARGGRLQGRRETAL-OH; C-terminus assumed), the values for the Classification in assay [2] and in assay [1] were 2 (A450 nm 1-2) and 1 (A450 nm 0-1), respectively.

For `CC(C)C[C@H](NC(=O)[C@H](C)NC(=O)[C@H](CO)NC(=O)CNC(=O)[C@@H](NC(=O)CCCC[C@@H]1SC[C@@H]2NC(=O)N[C@@H]21)[C@@H](C)O)C(=O)N[C@@H](CCC(N)=O)C(=O)N[C@@H](C)C(=O)N[C@@H](Cc1c[nH]c2ccccc12)C(=O)N[C@@H](CCCNC(=N)N)C(=O)N[C@@H](Cc1c[nH]cn1)C(=O)N[C@H](C(=O)N[C@@H](CO)C(=O)N[C@@H](CCCNC(=N)N)C(=O)N[C@@H](CCC(N)=O)C(=O)N[C@@H](C)C(=O)N[C@H](C(=O)N[C@@H](CCC(=O)O)C(=O)N[C@@H](CO)C(=O)N[C@H](C(=O)N[C@H](C(=O)O)C(C)C)[C@@H](C)O)[C@@H](C)O)[C@@H](C)O` [HPV E6 #66 (modified)] (Biotin-TGSALQAWRHTSRQATESTV-OH; C-terminus assumed), the Classification in assay [1] is reported as 1 (A450 nm 0-1).

For `CC[C@H](C)[C@H](NC(=O)[C@H](CO)NC(=O)[C@H](CCC(=O)O)NC(=O)[C@H](Cc1ccc(O)cc1)NC(=O)[C@H](CC(=O)O)NC(=O)[C@H](CC(N)=O)NC(=O)[C@H](CCC(=O)O)NC(=O)[C@H](CCCCN)NC(=O)CCCC[C@@H]1SC[C@@H]2NC(=O)N[C@@H]21)C(=O)N[C@@H](CO)C(=O)N[C@@H](CC(=O)O)C(=O)N[C@@H](CC(C)C)C(=O)N[C@@H](CCC(N)=O)C(=O)N[C@@H](CCC(N)=O)C(=O)NCC(=O)N[C@@H](CCCNC(=N)N)C(=O)N[C@@H](CC(=O)O)C(=O)N[C@H](C(=O)N[C@H](C(=O)N[C@@H](CCCNC(=N)N)C(=O)N[C@@H](CC(C)C)C(=O)O)[C@@H](C)O)[C@@H](C)CC` [PAG] (Biotin-KENDYESISDLQQGRDITRL-OH; C-terminus assumed), the Classification in assay [2] is on record as 1 (A450 nm 0-1).

As for “KTMPAATYRLLTGQEQPVYL (Biotin-KTMPAATYRLLTGQEQPVYL) [MINT-3]”, in assay [2], the Classification is recorded as 2 (A450 nm 1-2).

Regarding `CC[C@H](C)[C@H](NC(=O)[C@H](CCC(N)=O)NC(=O)CCCC[C@@H]1SC[C@@H]2NC(=O)N[C@@H]21)C(=O)N[C@@H](CO)C(=O)N1CCC[C@H]1C(=O)NCC(=O)NCC(=O)N[C@@H](CC(C)C)C(=O)N[C@@H](CCC(=O)O)C(=O)N1CCC[C@H]1C(=O)N1CCC[C@H]1C(=O)N[C@@H](CO)C(=O)N[C@@H](CCC(=O)O)C(=O)N[C@@H](CCCCN)C(=O)N[C@@H](Cc1c[nH]cn1)C(=O)N[C@@H](Cc1ccccc1)C(=O)N[C@@H](CCCNC(=N)N)C(=O)N[C@@H](CCC(=O)O)C(=O)N[C@H](C(=O)N[C@@H](CCC(=O)O)C(=O)N[C@H](C(=O)O)C(C)C)[C@@H](C)O` [Tax], the Classification in assay [1] is recorded as 1 (A450 nm 0-1).

Turning to `CC(C)C[C@H](NC(=O)[C@H](CC(=O)O)NC(=O)[C@H](CO)NC(=O)[C@H](CCC(=O)O)NC(=O)CNC(=O)[C@H](Cc1ccc(O)cc1)NC(=O)[C@H](CC(C)C)NC(=O)[C@H](C)NC(=O)[C@H](CO)NC(=O)[C@H](CO)NC(=O)[C@H](Cc1ccccc1)NC(=O)[C@H](C)NC(=O)[C@H](C)NC(=O)[C@H](Cc1ccc(O)cc1)NC(=O)[C@H](CC(=O)O)NC(=O)[C@H](CC(C)C)NC(=O)[C@H](C)NC(=O)CNC(=O)[C@@H]1CCCN1C(=O)[C@@H](NC(=O)CCCC[C@@H]1SC[C@@H]2NC(=O)N[C@@H]21)C(C)C)C(=O)O` [a-actinin 2] (Biotin-VPGALDYAAFSSALYGESDL-OH; C-terminus assumed), the Classification in assay [2] and in assay [1] was 1 (A450 nm 0-1) in each case.

Turning to `CC(C)C[C@H](NC(=O)[C@H](C)NC(=O)[C@@H](NC(=O)[C@@H](NC(=O)[C@H](Cc1c[nH]cn1)NC(=O)[C@H](CC(C)C)NC(=O)CNC(=O)[C@H](CCC(N)=O)NC(=O)CNC(=O)CNC(=O)[C@H](C)NC(=O)[C@H](C)NC(=O)[C@H](CCCNC(=N)N)NC(=O)[C@H](C)NC(=O)[C@H](CO)NC(=O)[C@H](CC(=O)O)NC(=O)[C@H](CC(=O)O)NC(=O)[C@H](Cc1c[nH]c2ccccc12)NC(=O)[C@H](C)NC(=O)CCCC[C@@H]1SC[C@@H]2NC(=O)N[C@@H]21)C(C)C)[C@@H](C)O)C(=O)O` [LPAP] (Biotin-AWDDSARAAGGQGLHVTAL-OH; C-terminus assumed), in assay [2], the Classification is recorded as 1 (A450 nm 0-1).

As for `CC(C)C[C@H](NC(=O)[C@H](CC(C)C)NC(=O)[C@@H](NC(=O)[C@H](CC(=O)O)NC(=O)CCCC[C@@H]1SC[C@@H]2NC(=O)N[C@@H]21)[C@@H](C)O)C(=O)N[C@@H](CC(C)C)C(=O)N[C@H](C(=O)N[C@@H](CCC(=O)O)C(=O)N[C@@H](CC(N)=O)C(=O)N[C@@H](CCC(=O)O)C(=O)NCC(=O)N[C@@H](CC(=O)O)C(=O)N[C@@H](CCCCN)C(=O)N[C@H](C(=O)N[C@@H](CCC(=O)O)C(=O)N[C@@H](CCC(=O)O)C(=O)N[C@@H](CCC(N)=O)C(=O)N[C@H](C(=O)N[C@@H](CO)C(=O)N[C@@H](Cc1ccc(O)cc1)C(=O)N[C@H](C(=O)O)C(C)C)C(C)C)[C@@H](C)O)[C@@H](C)O` [5H2B_HUMAN] (Biotin-DTLLLTENEGDKTEEQVSYV-OH; C-terminus assumed), the Classification in assay [2] was 1 (A450 nm 0-1).

`CSCC[C@H](NC(=O)[C@H](C)NC(=O)[C@H](CCCNC(=N)N)NC(=O)CNC(=O)[C@@H](NC(=O)[C@H](Cc1c[nH]c2ccccc12)NC(=O)[C@H](CCCNC(=N)N)NC(=O)CNC(=O)CCCC[C@@H]1SC[C@@H]2NC(=O)N[C@@H]21)[C@@H](C)O)C(=O)N[C@@H](CO)C(=O)N[C@@H](C)C(=O)N[C@@H](Cc1c[nH]c2ccccc12)C(=O)N[C@@H](CCCCN)C(=O)N1CCC[C@H]1C(=O)N[C@H](C(=O)N[C@@H](CCCNC(=N)N)C(=O)N[C@@H](CCCNC(=N)N)C(=O)N[C@@H](CCC(=O)O)C(=O)N[C@H](C(=O)N[C@@H](CCC(=O)O)C(=O)N[C@H](C(=O)O)C(C)C)[C@@H](C)O)[C@@H](C)O` [HPV E6 #35 (modified)] (Biotin-GRWTGRAMSAWKPTRRETEV-OH; C-terminus assumed): in assay [1], the Classification was 3 (A450 nm 2-3).

On to “PPATPSPRLALPAHHNATRL (Biotin-PPATPSPRLALPAHHNATRL) [Na+/Pi cotransporter 2]”, for which the Classification in assay [1] is recorded as 1 (A450 nm 0-1).
